Test results from patent US10626125B2, “1,1,1-trifluoro-3-hydroxypropan-2-yl carbamate derivatives as MAGL inhibitors” (PFIZER INC., priority 2017, dated 2020).
Read-outs that look alike come from different tables or passages of the source.

Columns and labels:
[1] = target: T1, human recombinant Monoacylglycerol Lipase (Homo sapiens, UniProt Q99685); assay: MAGL inactivation (kinact/KI from enzyme progress curves, T=0 min protocol); settings: from plot of Kobs vs. compound concentration, geometric mean of 2-5 determinations (b: ≥6)
T1 sequence (Q99685 1-303): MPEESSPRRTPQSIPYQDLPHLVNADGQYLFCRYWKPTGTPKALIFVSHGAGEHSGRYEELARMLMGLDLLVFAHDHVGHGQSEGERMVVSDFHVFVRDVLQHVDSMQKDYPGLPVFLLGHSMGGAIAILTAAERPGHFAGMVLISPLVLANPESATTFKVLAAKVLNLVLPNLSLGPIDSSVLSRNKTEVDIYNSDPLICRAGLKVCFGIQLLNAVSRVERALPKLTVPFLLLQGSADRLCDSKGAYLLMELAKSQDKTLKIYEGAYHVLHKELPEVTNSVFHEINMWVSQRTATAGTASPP

[2] = target: T1, human recombinant Monoacylglycerol Lipase; assay: MAGL enzymatic assay (IC50; 7-HCA substrate added at T=0 min or T=30 min); type: biochemical; settings: geometric mean of 2-5 determinations unless otherwise indicated
[3] = MAGL (T = 30 min) IC50, substrate 7-HCA added after 30 minute incubation (T=30 min)
[4] = substrate 7-HCA added immediately (T=0 min), read-out: MAGL (T = 0 min) IC50

MAGL kinact/KI [1]	IC50 [2, 3] [nM]	IC50 [2, 4] [nM]	SMILES
18500 1/s per M	2	29	CN(C(=O)CC1CC1)C1CC2(CCN(C(=O)O[C@H](CO)C(F)(F)F)CC2)C1 [Example 43, (2R)-1,1,1-trifluoro-3-hydroxypropan-2-yl 2-[(cyclopropylacetyl)(methyl)amino]-7-azaspiro[3.5]nonane-7-carboxylate]
66900 1/s per M	1	9	CN(C1CC2(CCN(C(=O)O[C@H](CO)C(F)(F)F)CC2)C1)S(=O)(=O)C(C)(C)C [Example 61, (2R)-1,1,1-trifluoro-3-hydroxypropan-2-yl 2-[(tert-butylsulfonyl)(methyl)amino]-7-azaspiro[3.5]nonane-7-carboxylate]
1390^b 1/s per M	26	297	O=C(O[C@H](CO)C(F)(F)F)N1CCC2(CC1)CC(c1ccc(F)cn1)CO2 (single isomer, unassigned) [Example 17]
1440 1/s per M	27	239	O=C(O[C@H](CO)C(F)(F)F)N1CCC2(CC1)CC(c1ccc(C(F)F)nc1)CO2 (single isomer, unassigned) [Example 36]
15700 1/s per M	2	30	CN(C(=O)C1CC1)C1CC2(CCN(C(=O)O[C@H](CO)C(F)(F)F)CC2)C1 [Example 55, (2R)-1,1,1-trifluoro-3-hydroxypropan-2-yl 2-[(cyclopropylcarbonyl)(methyl)amino]-7-azaspiro[3.5]nonane-7-carboxylate]
63200 1/s per M	1	9	CN(C1CC2(CCN(C(=O)O[C@H](CO)C(F)(F)F)CC2)C1)S(=O)(=O)c1ccccc1 [Example 45, (2R)-1,1,1-trifluoro-3-hydroxypropan-2-yl 2-[methyl(phenylsulfonyl)amino]-7-azaspiro[3.5]nonane-7-carboxylate]
71900 1/s per M	1	10	O=C(O[C@H](CO)C(F)(F)F)N1CCC2(CCC(n3cc(C(F)(F)F)cn3)CO2)CC1 (single isomer, unassigned) [Example 69]
14400 1/s per M	4	54	N#Cc1ccc(F)c(C2COC3(CCN(C(=O)O[C@H](CO)C(F)(F)F)CC3)C2)c1 (single isomer, unassigned) [Example 30]
6260 1/s per M	9	96	O=C(O[C@H](CO)C(F)(F)F)N1CCC2(CC1)CC(n1cc(F)cn1)C2 [Example 64, (2R)-1,1,1-trifluoro-3-hydroxypropan-2-yl 2-(4-fluoro-1H-pyrazol-1-yl)-7-azaspiro[3.5]nonane-7-carboxylate]
31900 1/s per M	0.8	8	O=C(O[C@H](CO)C(F)(F)F)N1CCC2(CC1)CC(Oc1cc(C(F)F)ccn1)C2 [Example 89, (2R)-1,1,1-trifluoro-3-hydroxypropan-2-yl 2-{[4-(difluoromethyl)pyridin-2-yl]oxy}-7-azaspiro[3.5]nonane-7-carboxylate]
2880 1/s per M	16	172	O=C(O[C@H](CO)C(F)(F)F)N1CCC2(CC1)CC(n1cc(C(F)(F)F)cn1)CO2 (single isomer, unassigned) [Example 8]
7170 1/s per M	11	107	O=C(O[C@H](CO)C(F)(F)F)N1CCC2(CC1)CC(n1cc(C(F)F)cn1)CO2 (single isomer, unassigned) [Example 20]
71700 1/s per M	0.5	9	O=C(O[C@H](CO)C(F)(F)F)N1CCC2(CC1)CC(Oc1cccc(C(F)F)n1)C2 [Example 90, (2R)-1,1,1-trifluoro-3-hydroxypropan-2-yl 2-{[6-(difluoromethyl)pyridin-2-yl]oxy}-7-azaspiro[3.5]nonane-7-carboxylate]
46200 1/s per M	1	13	O=C(O[C@H](CO)C(F)(F)F)N1CCC2(CC1)CC(c1ccnc(C(F)F)c1)C2 [Example 80, (2R)-1,1,1-trifluoro-3-hydroxypropan-2-yl 2-[2-(difluoromethyl)pyridin-4-yl]-7-azaspiro[3.5]nonane-7-carboxylate]
77400 1/s per M	1	13	O=C(O[C@H](CO)C(F)(F)F)N1CCC2(CC1)CC(n1cc(C3CC3)cn1)C2 [Example 49, (2R)-1,1,1-trifluoro-3-hydroxypropan-2-yl 2-(4-cyclopropyl-1H-pyrazol-1-yl)-7-azaspiro[3.5]nonane-7-carboxylate]
22800 1/s per M	3	17	N#Cc1ccc([C@H]2COC3(CCN(C(=O)O[C@H](CO)C(F)(F)F)CC3)C2)cc1F [Example 27, (2R)-1,1,1-trifluoro-3-hydroxypropan-2-yl (3S)-3-(4-cyano-3-fluorophenyl)-1-oxa-8-azaspiro[4.5]decane-8-carboxylate]
17800 1/s per M	3	29	N#Cc1cccc(C2COC3(CCN(C(=O)O[C@H](CO)C(F)(F)F)CC3)C2)c1F (single isomer, unassigned) [Example 71]
8870 1/s per M	3	26	N#Cc1cccc(C2CCOC3(CCN(C(=O)O[C@H](CO)C(F)(F)F)CC3)C2)c1 (single isomer, unassigned) [Example 73]
24400 1/s per M	2	9	CC(C)(C)c1cnn(C2COC3(CCN(C(=O)O[C@H](CO)C(F)(F)F)CC3)C2)c1 (single isomer, unassigned) [Example 21]
7370 1/s per M	12	115	O=C(O[C@H](CO)C(F)(F)F)N1CCC2(CCC(n3cc(C(F)F)cn3)CO2)CC1 (single isomer, unassigned) [Example 75]
3250 1/s per M	17	184	N#Cc1ccc(F)c(C2COC3(CCN(C(=O)O[C@H](CO)C(F)(F)F)CC3)C2)c1 (single isomer, unassigned) [Example 29]
128000 1/s per M	0.3	4	O=C(O[C@H](CO)C(F)(F)F)N1CCC2(CC1)CC(Oc1cccc(F)c1)C2 [Example 51, (2R)-1,1,1-trifluoro-3-hydroxypropan-2-yl 2-(3-fluorophenoxy)-7-azaspiro[3.5]nonane-7-carboxylate]
5010^b 1/s per M	9	92	O=C(O[C@H](CO)C(F)(F)F)N1CCC2(CC1)CC(c1ccc(F)cn1)CO2 (single isomer, unassigned) [Example 16]
137000 1/s per M	1	5	O=C(O[C@H](CO)C(F)(F)F)N1CCC2(CC1)CC(Oc1ccnc(C(F)(F)F)c1)C2 [Example 59, (2R)-1,1,1-trifluoro-3-hydroxypropan-2-yl 2-{[2-(trifluoromethyl)pyridin-4-yl]oxy}-7-azaspiro[3.5]nonane-7-carboxylate]
9780 1/s per M	4	49	O=C(O[C@H](CO)C(F)(F)F)N1CCC2(CC1)CC(n1cc(Cl)cn1)CO2 (single isomer, unassigned) [Example 22]
16900 1/s per M	3	27	N#Cc1cc(C2COC3(CCN(C(=O)O[C@H](CO)C(F)(F)F)CC3)C2)ccc1F (single isomer, unassigned) [Example 28]
60600 1/s per M	2	14	O=C(O[C@H](CO)C(F)(F)F)N1CCC2(CC1)CC(c1ccc(C(F)(F)F)nc1)C2 [Example 67, (2R)-1,1,1-trifluoro-3-hydroxypropan-2-yl 2-[6-(trifluoromethyl)pyridin-3-yl]-7-azaspiro[3.5]nonane-7-carboxylate]
53400 1/s per M	1	10	O=C(O[C@H](CO)C(F)(F)F)N1CCC2(CC1)CC(c1ccc(F)cc1F)CO2 (single isomer, unassigned) [Example 33]

SMILES	MAGL kinact/KI [1]	IC50 [2, 3] [nM]	IC50 [2, 4] [nM]
CN(C(=O)C1CCCC1)[C@H]1COC2(CCN(C(=O)O[C@H](CO)C(F)(F)F)CC2)C1 [Example 5, (2R)-1,1,1-Trifluoro-3-hydroxypropan-2-yl (3R)-3-[(cyclopentylcarbonyl)(methyl)amino]-1-oxa-8-azaspiro[4.5]decane-8-carboxylate]	5530 1/s per M	7	67
O=C(O[C@H](CO)C(F)(F)F)N1CCC2(CC1)CC(c1cccc(C(F)(F)F)n1)CO2 (single isomer, unassigned) [Example 14]	124000^b 1/s per M	1	5
CN(C1CC2(CCN(C(=O)O[C@H](CO)C(F)(F)F)CC2)C1)S(=O)(=O)CC1CC1 [Example 18, (2R)-1,1,1-Trifluoro-3-hydroxypropan-2-yl 2-{[(cyclopropylmethyl)sulfonyl](methyl)amino}-7-azaspiro[3.5]nonane-7-carboxylate]	14900 1/s per M	4	52
